Test results as given in patent US4855497A, “Novel diamine derivatives” (Chugai Seiyaku Kabushiki Kaisha, priority 1985, dated 1989).

Assays:
[1] = system: Chloroform-Induced Arrythmia; assay: Activity against chloroform-induced arrythmia in rats (prevention of ventricular fibrillation); format: in vivo, Sprague-Dowley male rats; settings: for Percent prevention (ventricular fibrillation), starved: starved rats
Method: Activity Aganist Chloroform-Induced Arrythmia in Rats
The following procedures were substantially in accordance with the method of Erker and Baker (Arch. Int. Pharmacodyn., 243, 97-102, 1980). Aminophylline (20 mg/kg) was injected intramuscularly into two groups of Sprague-Dowley male rats (3-4 wk. old, 7 animals per group) weighing about 100 g on average, one group having been starved for 24 hours and the other group not starved. Thirty minutes after the injection, the animals were put into a 4,000-ml glass beaker with a lid that contained gauze impregnated with […] of chloroform. Fifty minutes later, the animals were recovered from the beaker and their chests were incised to check their hearts for the presence of ventricular fibrillation. The features of their cardiac rhythm were examined by the electrocardiogram. When no distinct fibrillation was observed, the heart was touched with tweezers. The heart was identified as fibrillar when rapid irregular twitchings occured on the surface of ventricles and continued for at least 5 seconds after chest incision or mechanical stimulation.
Selected compounds suspended in 3% gum arabic were administered in various doses to the rats either intraperitoneally (i.P.) or perorally (P.O.) 30 minutes prior to treatment with chloroform. The percent prevention of ventricular fibrillation was determined for each rat. Only a 3% gum arabic solution was administered to the control group.

[2] = system: Aconitine-Induced Arrythmia; assay: Activity against aconitine-induced arrythmia in rats; format: in vivo, Sprague-Dowley male rats; settings: aconitine 1 μg/kg/min; for Time required for ventricular extrasystole to occur: untreated 14.3 min; for Time required for ventricular fibrillation to occur: untreated 35.3 min
Method: Activity Against Aconitine-Induced Arrythmia in Rats
Using Sprague-Dowley male rats (9-10 wk. old, two animals per group) weighing about 350 g on average, the following experiment was conducted substantially in compliance with the method of Vargftig et al. (Europ. J. Pharmacol., 6, 49, 1969).
The animals were anesthetized by intraperitoneal administration of 1 g/kg of urethane. A polyethylene cannula was inserted into both the femoral artery and vein of each animal; the drug was administered through the femoral vein while the blood pressure was measured at the femoral artery.
While the aconitine solution was continuously infused into the vein at a rate of 1 μg/kg/min, a selected compound was administered intravenously at 5-minute intervals. In order to prevent the aconitine-induced dyspnea from interfering with the experimental results, 0.2 mg/kg of d-tubocurarine was administered intravenously to each animal, which then was subjected to artificial respiration through a cannula inserted into the trachea (80 breathings/min, with 4 ml of air supplied by a single ventillation).
Identification of arrythmia was made by the ECG in the second induction period; the appearance of a QRS complex with sharply downward deflections was used as an indication of ventricular arrythmia and observation was continued until ventricular fibrillation appeared. The results are shown in Table 3 in terms of the times required for ventricular extrasystole and ventricular fibrillation to occur.

[3] = system: Ouabain-Induced Arrythmia; assay: Activity against ouabain-induced arrythmia in guinea pigs; format: in vivo, Hartly male guinea pigs; settings: ouabain 5 μg/kg/min; for Time required for ventricular extrasystole to occur: untreated 28.5 min; for Time required for ventricular fibrillation to occur: untreated 35.1 min; for Time required for cardiac arrest to occur: untreated 41.2 min
Method: Activity Against Ouabain-Induced Arrythmia in Guinea Pigs
Hartly male guinea pigs (5-6 wk. old, two animals per group) weighing about 350 g on average were anesthetized by intraperitoneal administration of 1.2 g/kg of urethane. A polyethylene cannula was inserted into both the cervical vein and the carotid artery; the drug was administered through the cervical vein while the blood pressure was measured at the carotid artery. A selected test compound was administered 5 minutes before the sustained intravenous infusion of the ouabain solution (5 μg/kg/min) as described in J. Pharmacol. Exp. Ther., 136, 227, 1962). Identification of arrythmia was made by the ECG in the second induction period; the appearance of a QRS complex with sharply downward deflictions was used as an indication of ventricular arrythmia and observation was continued until ventricular fibrillation and cardiac arrest appeared. The results are shown in Table 4 in terms of the times required for ventricular extrasystole, ventricular fibrillation and cardiac arrest to occur.

Acetylcholine [4] = assay: Activity against acetylcholine (I): inhibition of acetylcholine-induced contraction of isolated ilea; parameters: species or system SD/Slc male rats; settings: 10^-4 M; 10^-6 M acetylcholine; isolated rat ilea
Method: Activity Against Acetylcholine (I)
SD/Slc male rats (10-mo. old, four animals per group) were clubbed dead and their ilea were immediately extracted. The ilea were suspended under a load of 1 g in a Krebs-Henseleit solution oxygenated with a mixture of 95% O2 +5% CO2 at 27° C., and the ileal reaction was measured isotonically.
The anti-cholinergic activity of each of the compounds tested was determined in terms of percent inhibition against the contractive reaction of 10^-6 M of acetylcholine (causing 60-70% of the maximum contractive reaction of acetylcholine).

Acetylcholine [5] = assay: Activity against acetylcholine (II): inhibition of acetylcholine-induced saliva excretion; format: in vivo, Beagle dogs; settings: dose 100 (g), intra-arterially, 1 min before acetylcholine
Method: Activity Against Acetylcholine (II)
Beagle dogs were anesthetized by intravenous administration of pentobarbital (35 mg/kg). The following experiment was conducted in accordance with the method of Sato et al. (Tohoku J. Exp. Med., 108, 377-388, 1982). The left lower jaw of each animal was incised to identify the submandibular gland, the duct through which saliva was excreted from that gland, and the artery nourishing the same gland. A polyethylene tube was first inserted into the excretory duct. Then, a cannula was inserted into the submandibular gland controlling artery and said gland was perfused with the arterial blood drawn from the femoral artery. The tube from the duct was connected to a drop counter and the number of drops of excreted saliva was recorded. The excretion of saliva was induced by intra-arterial administration of acetylcholine.
One minute before the acetylcholine administration, […] (0.1 ml) of a selected compound was administered intra-arterially and its ability to inhibit saliva excretion was examined.

Blood Sugar Level = assay: Effect on blood sugar level; format: in vivo, SD/Slc male rats; settings: starved overnight
Method: Effect on Blood Sugar Level
After starving SD/Slc male rats (body weight, 250 g; 6 animals per group) overnight, 20-μl blood samples were drawn from the tail vein of each rat while it was not anesthetized. Records were taken of the sugar level in each blood sample. A selected compound of the present invention was suspended in 3% gum arabic and the suspension was administered perorally to each rat in an amount of 50 or 200 mg/kg. At 2, 4 and 6 hours of the administration, blood samples were taken and their blood sugar levels were measured. Measurements of blood sugar levels were conducted with a New Blood Sugar Test (Boehringer, Mannheim).
To the control group, a 3% gum arabic solution was administered, and diisopyramide was administered as a comparative drug.

[6] = system: sleeping induced by hexobarbital; assay: Effect on the time of sleeping induced by hexobarbital; format: in vivo, ddY/Slc male rats; settings: H3PO4 salt, untreated 53.9 ± 2.7
Method: Effect on the Time of Sleeping Induced by Hexobarbital
A selected compound of the present invention was administered perorally to ddY/Slc male rats (5-6 wk. old, 10 animals per group) in an amount of 50 or 100 mg/kg. One hour later, […] of hexobarbital was administered intraperitoneally to each animal, thereby causing the loss of orthogonal reflex. The time required for the recovery of orthogonal reflex was measured for each animal.
As comparative drugs, 50 or 100 mg/kg of disopyramide and 5 mg/kg of diazepam were administered perorally.

[7] = cited from earlier work

Cc1cccc(C)c1NC(=O)CCNCCN(C(C)C)C(C)C [Compound No. 1, 3-(diisopropylaminoethylamino)-2',6'-dimethylpropionanilide]
responders at 25 mg/kg ([1]; Rattus norvegicus, ip, 0.5 h, not starved rats, 25 mg/kg i.P., 30 min prior to chloroform, read-out: Percent prevention (ventricular fibrillation), not starved): 85.7% | responders at 1 mg/kg ([1]; Rattus norvegicus, po, 0.5 h, not starved rats, 1 mg/kg P.O., 30 min prior to chloroform, read-out: Percent prevention (ventricular fibrillation), not starved): 85.7% | Percent prevention (ventricular fibrillation), starved ([1]; 1 mg/kg P.O., 30 min prior to chloroform): 85.7% | Time required for ventricular extrasystole to occur ([2]; 5 mg/kg intravenously): 45.2 min | Time required for ventricular fibrillation to occur ([2]; 5 mg/kg intravenously): > 120.0 min | Time required for ventricular extrasystole to occur ([3]; 5 mg/kg via cervical vein): 42.1 min | Time required for ventricular fibrillation to occur ([3]; 5 mg/kg via cervical vein): 45.4 min | Time required for cardiac arrest to occur ([3]; 5 mg/kg via cervical vein): 51.3 min | Percent inhibition (contractive reaction of acetylcholine) (Acetylcholine [4]): 20% | Percent inhibition (saliva excretion) (Acetylcholine [5]): 0% | Blood sugar level, 0 hr (mean ± S.E.) (Blood Sugar Level; 50 mg/kg perorally): 68.4 ± 4.0 mg/dL | Blood sugar level, 2 hr (mean ± S.E.) (Blood Sugar Level; 50 mg/kg perorally): 63.0 ± 4.1 mg/dL | Blood sugar level, 4 hr (mean ± S.E.) (Blood Sugar Level; 50 mg/kg perorally): 58.1 ± 2.2 mg/dL | Blood sugar level, 6 hr (mean ± S.E.) (Blood Sugar Level; 50 mg/kg perorally): 59.9 ± 2.6 mg/dL | Blood sugar level, 0 hr (mean ± S.E.) (Blood Sugar Level; 200 mg/kg perorally): 83.7 ± 3.0 mg/dL | Blood sugar level, 2 hr (mean ± S.E.) (Blood Sugar Level; 200 mg/kg perorally): 55.4 ± 5.7 mg/dL | Blood sugar level, 4 hr (mean ± S.E.) (Blood Sugar Level; 200 mg/kg perorally): 73.4 ± 7.2 mg/dL | Blood sugar level, 6 hr (mean ± S.E.) (Blood Sugar Level; 200 mg/kg perorally): 71.2 ± 3.2 mg/dL

CC(C)N(CCC(C(N)=O)(c1ccccc1)c1ccccn1)C(C)C (centres unmarked) [Disopyramide, reference compound]
responders at 10 mg/kg ([1]; Rattus norvegicus, po, 0.5 h, read-out: Percent prevention (ventricular fibrillation), not starved): 37.6% | Percent prevention (ventricular fibrillation), starved ([1]; 10 mg/kg P.O., 30 min prior to chloroform): 49.6% | Time required for ventricular extrasystole to occur ([2]; 10 mg/kg intravenously): 22.6 min | Time required for ventricular fibrillation to occur ([2]; 10 mg/kg intravenously): 78.2 min | Time required for ventricular extrasystole to occur ([3]; 10 mg/kg via cervical vein): 41.1 min | Time required for ventricular fibrillation to occur ([3]; 10 mg/kg via cervical vein): 54.3 min | Time required for cardiac arrest to occur ([3]; 10 mg/kg via cervical vein): 59.6 min | Percent inhibition (contractive reaction of acetylcholine) (Acetylcholine [4]): 89% | Percent inhibition (saliva excretion) (Acetylcholine [5]): 41.7% | Time of sleeping (mean ± S.E.) ([6]; 50 mg/kg perorally): 59.8 ± 3.3 min | Time of sleeping (mean ± S.E.) ([6]; 100 mg/kg perorally): 53.5 ± 2.4 min | Blood sugar level, 0 hr (mean ± S.E.) (Blood Sugar Level; 50 mg/kg perorally): 75.2 ± 5.9 mg/dL | Blood sugar level, 2 hr (mean ± S.E.) (Blood Sugar Level; 50 mg/kg perorally): 46.9 ± 1.7 mg/dL | Blood sugar level, 4 hr (mean ± S.E.) (Blood Sugar Level; 50 mg/kg perorally): 41.9 ± 2.9 mg/dL | Blood sugar level, 6 hr (mean ± S.E.) (Blood Sugar Level; 50 mg/kg perorally): 45.8 ± 2.0 mg/dL | Blood sugar level, 0 hr (mean ± S.E.) (Blood Sugar Level; 200 mg/kg perorally): 64.5 ± 5.6 mg/dL | Blood sugar level, 2 hr (mean ± S.E.) (Blood Sugar Level; 200 mg/kg perorally): 41.7 ± 3.1 mg/dL | Blood sugar level, 4 hr (mean ± S.E.) (Blood Sugar Level; 200 mg/kg perorally): 29.7 ± 3.2 mg/dL | Blood sugar level, 6 hr (mean ± S.E.) (Blood Sugar Level; 200 mg/kg perorally): 36.9 ± 2.6 mg/dL | action on the cardiac muscles ([7]; clinical): inhibitory action on the cardiac muscles | undesirable side effects ([7]; clinical, presumably from anti-cholinergic action): hydrodipsia, anuresis, constipation, vertigo, blurring of vision and vomiting | incidence of anuresis ([7]; patients with prostatomegaly and neurotic bladders due to diabetes): High incidence of anuresis | activity in peroral administration ([7]; peroral, clinical): sustained activity
